Reference: patent publication US20080221132A1, “Multi-Functional Small Molecules as Anti-Proliferative Agents” (priority 2006, published 2008)
Read-outs that look alike come from different tables or passages of the source.

Assays:
[1] = biological target: C-Raf (Homo sapiens, UniProt P04049, Y340D/Y341D); experiment: Raf kinase assay (Upstate kit, MEK-1 substrate, dot blot), C-Raf; assay type: biochemical; conditions: TABLE 6-B (Section 6 compounds)
Method: The Raf kinase assay was performed by following the protocol of Raf kinase assay kit (B-Raf, Upstate, catalog#17-359; C-Raf, Upstate, catalog#17-360) with modifications. Briefly, assay buffer, ATP, substrate and Raf kinase were mixed in a 96 well assay plate. The final kinase assay mixture contained 20 mM MOPS, pH7.2, 25 mM β-glycerol phosphate, 5 mM EGTA, 1 mM sodium orthovanadate, 1 mM DTT, 250 μM ATP and 37.5 mM magnesium chloride, 0.1 μg/well of Raf kinase, and 1 μg/well of MEK-1 substrate protein. Assay samples were incubated for 30 min at room temperature. The kinase reaction was stopped by adding EDTA, pH8 to a final concentration of 25 mM. A 10 μl of the reaction sample was spotted onto nitrocellulose filter and dot blot was performed by adding 1 μg/ml of anti-phospho-MEK-1 antibody in the blocking solution (Licor Bioscience, catalogue #927-40000). The nitrocellulose filter was subsequently incubated with secondary IRDye 800CW goat anti-rabbit antibody (Licor Bioscience, catalogue #926-32211) before reading the signal on an Odyssey imager (Licor Bioscience).

[2] = tested on: Pancreas_Capan1; experiment: Cell proliferation assay (ATPlite), Capan1; assay type: cell-based; conditions: Homo sapiens, CAPAN-1; TABLE C; 72 hours, 0.5% fetal bovine serum, ATP content; read-out: IC50 grading, Pancreas_Capan1
Method: (§1) A representative number of compounds were assayed against several different cell lines using the cell proliferation assay:
(§2) Cell Proliferation Assay:
(§3) Cancer cell lines were plated at 5,000 to 10,000 per well in 96-well flatted bottomed plates with various concentration of compounds. The cells were incubated with compounds for 72 hours in the presence of 0.5% of fetal bovine serum. Growth inhibition was accessed by adenosine triphosphate (ATP) content assay using Perkin Elmer ATPlite kit. ATPlite is an ATP monitoring system based on firefly luciferase. Briefly, 25 μl of mammalian cell lysis solution was added to 50 μl of phenol red-free culture medium per well to lyse the cells and stabilize the ATP. 25 μl of substrate solution was then added to the well and subsequently the luminescence was measured.

[3] = tested on: Lung_H1975; experiment: Cell proliferation assay (ATPlite), H1975; assay type: cell-based; conditions: Homo sapiens, NCI-H1975; TABLE C; 72 hours, 0.5% fetal bovine serum, ATP content; read-out: IC50 grading, Lung_H1975
Method: as §1, §2, §3

[4] = tested on: Prostate_PC3 (PC-3, prostate adenocarcinoma); experiment: Cell proliferation assay (ATPlite), PC3; assay type: cell-based
Method: as §1, §2
as §3, with “The cells were incubated with compounds for 72 hours in the presence of 0.5% of fetal bovine serum.” left out

[5] = tested on: Pancreas_BxPC3; experiment: Cell proliferation assay (ATPlite), BxPC3; assay type: cell-based; conditions: Homo sapiens, BXPC-3; TABLE C; 72 hours, 0.5% fetal bovine serum, ATP content; read-out: IC50 grading, Pancreas_BxPC3
Method: as §1, §2, §3

[6] = tested on: Lung_H2122; experiment: Cell proliferation assay (ATPlite), H2122; assay type: cell-based; conditions: Homo sapiens, NCI-H2122; TABLE C; 72 hours, 0.5% fetal bovine serum, ATP content; read-out: IC50 grading, Lung_H2122
Method: as §1, §2, §3

[7] = tested on: Lung_H1703; experiment: Cell proliferation assay (ATPlite), H1703; assay type: cell-based; conditions: Homo sapiens, NCI-H1703; TABLE C; 72 hours, 0.5% fetal bovine serum, ATP content; read-out: IC50 grading, Lung_H1703
Method: as §1, §2, §3

[8] = tested on: Lung_H358; experiment: Cell proliferation assay (ATPlite), H358; assay type: cell-based; conditions: Homo sapiens, NCI-H358; TABLE C; 72 hours, 0.5% fetal bovine serum, ATP content; read-out: IC50 grading, Lung_H358
Method: as §1, §2, §3

[9] = tested on: Lung_H460; experiment: Cell proliferation assay (ATPlite), H460; assay type: cell-based; conditions: Homo sapiens, NCI-H460; TABLE C; 72 hours, 0.5% fetal bovine serum, ATP content; read-out: IC50 grading, Lung_H460
Method: as §1, §2, §3

[10] = tested on: Lung_HCC827; experiment: Cell proliferation assay (ATPlite), HCC827; assay type: cell-based; conditions: Homo sapiens, TABLE C, 72 hours, 0.5% fetal bovine serum, ATP content, read-out: IC50 grading, Lung_HCC827
Method: as §1, §2, §3

[11] = tested on: Colon_HCT116 (HCT116, colon cancer); experiment: Cell proliferation assay (ATPlite), HCT116; assay type: cell-based; conditions: Homo sapiens, HCT-116; TABLE D; Colon cancer; read-out: IC50 grading, HCT116
Method: as §1, §2
as §3, with “The cells were incubated with compounds for 72 hours in the presence of 0.5% of fetal bovine serum.” left out

[12] = tested on: HCT-116 (colon) and SKBr3 (breast) cancer cells; experiment: Induction of apoptosis, Caspase 3&7 activity (FIG. 4); assay type: cell-based; conditions: concentration <20 μM
[13] = tested on: Epidermoid_A431 (A431, epidermoid carcinoma); experiment: Cell proliferation assay (ATPlite), A431; assay type: cell-based; conditions: Homo sapiens, A-431; TABLE D; Epidermoid carcinoma; read-out: IC50 grading, A431
Method: as §1, §2
as §3, with “The cells were incubated with compounds for 72 hours in the presence of 0.5% of fetal bovine serum.” left out

[14] = tested on: Breast_MDAMB468 (MDA-MB-468, breast adenocarcinoma); experiment: Cell proliferation assay (ATPlite), MDA-MB-468; assay type: cell-based; conditions: Homo sapiens, TABLE D, Breast adenocarcinoma, read-out: IC50 grading, MDA-MB-468
Method: as §1, §2
as §3, with “The cells were incubated with compounds for 72 hours in the presence of 0.5% of fetal bovine serum.” left out

[15] = tested on: MDA-MB-231 (breast adenocarcinoma); experiment: Cell proliferation assay (ATPlite), MDA-MB-231; assay type: cell-based; conditions: Homo sapiens, TABLE D, read-out: IC50 grading, MDA-MB-231
Method: as §1, §2
as §3, with “The cells were incubated with compounds for 72 hours in the presence of 0.5% of fetal bovine serum.” left out

[16] = tested on: Prostate_22RV1 (22RV1, prostate carcinoma); experiment: Cell proliferation assay (ATPlite), 22RV1; assay type: cell-based; conditions: Homo sapiens, TABLE D, Prostate carcinoma, read-out: IC50 grading, 22RV1
Method: as §1, §2
as §3, with “The cells were incubated with compounds for 72 hours in the presence of 0.5% of fetal bovine serum.” left out

[17] = tested on: Breast_SkBr3 (SKBr3, breast carcinoma); experiment: Cell proliferation assay (ATPlite), SkBr3; assay type: cell-based; conditions: Homo sapiens, SK-BR-3; TABLE D; Breast carcinoma; read-out: IC50 grading, SKBr3
Method: as §1, §2
as §3, with “The cells were incubated with compounds for 72 hours in the presence of 0.5% of fetal bovine serum.” left out

[18] = tested on: Caki-1 (renal carcinoma); experiment: Cell proliferation assay (ATPlite), Caki-1; assay type: cell-based; conditions: Homo sapiens, TABLE D, read-out: IC50 grading, Caki-1
Method: as §1, §2
as §3, with “The cells were incubated with compounds for 72 hours in the presence of 0.5% of fetal bovine serum.” left out

[19] = tested on: Breast_MCF7 (MCF-7, breast adenocarcinoma); experiment: Cell proliferation assay (ATPlite), MCF7; assay type: cell-based; conditions: Homo sapiens, TABLE D, Breast adenocarcinoma, read-out: IC50 grading, MCF-7
Method: as §1, §2
as §3, with “The cells were incubated with compounds for 72 hours in the presence of 0.5% of fetal bovine serum.” left out

[20] = tested on: A549 NSCLC xenograft; experiment: A549 NSCLC Xenograft Model; assay type: in vivo; conditions: FIG. 11A, 11B
[21] = tested on: ER mRNA expression in human ER-negative breast cancer cell lines; conditions: Yang et al. Cancer Res., 2001; cited from earlier work

C-Raf, sequence (P04049 whole entry Y340D/Y341D): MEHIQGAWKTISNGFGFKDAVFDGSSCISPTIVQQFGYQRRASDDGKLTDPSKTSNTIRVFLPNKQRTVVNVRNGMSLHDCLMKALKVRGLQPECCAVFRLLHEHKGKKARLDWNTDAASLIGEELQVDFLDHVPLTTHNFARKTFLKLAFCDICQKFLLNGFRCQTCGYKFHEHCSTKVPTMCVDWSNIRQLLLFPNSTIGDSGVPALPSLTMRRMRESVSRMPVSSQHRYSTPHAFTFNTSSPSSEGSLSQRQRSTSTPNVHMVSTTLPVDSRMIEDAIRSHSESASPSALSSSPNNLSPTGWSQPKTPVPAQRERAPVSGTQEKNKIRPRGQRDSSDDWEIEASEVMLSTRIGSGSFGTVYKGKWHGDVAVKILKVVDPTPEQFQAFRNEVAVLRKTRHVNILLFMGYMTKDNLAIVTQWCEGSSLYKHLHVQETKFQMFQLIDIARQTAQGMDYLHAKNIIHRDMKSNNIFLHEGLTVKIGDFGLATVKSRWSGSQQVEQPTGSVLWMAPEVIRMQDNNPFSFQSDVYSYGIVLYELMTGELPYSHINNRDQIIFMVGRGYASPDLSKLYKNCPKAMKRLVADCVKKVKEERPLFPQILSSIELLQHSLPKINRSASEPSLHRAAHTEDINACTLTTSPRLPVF

## O=C(CCCCCNC(=O)c1cc(Oc2ccc(NC(=O)Nc3ccc(Cl)c(C(F)(F)F)c3)cc2)ccn1)NO [Compound 5]
[1]
  IC50: 1000 to 10000 nM

## COc1cc2ncnc(Nc3ccc(F)c(Cl)c3)c2cc1OCCCCCCC(=O)NO [Compound 6]
[2]
  IC50: 1000 to 10000 nM
[3]
  IC50: 100 to 1000 nM
[4]; TABLE C, 72 hours, 0.5% fetal bovine serum, ATP content, read-out: IC50 grading, Prostate_PC3
  IC50: 100 to 1000 nM
[5]
  IC50: 100 to 1000 nM
[6]
  IC50: 100 to 1000 nM
[7]
  IC50: 100 to 1000 nM
[8]
  IC50: 100 to 1000 nM
[9]
  IC50: 100 to 1000 nM

## O=C(CCCCCCC(=O)Nc1cc(Oc2ccc(NC(=O)Nc3ccc(Cl)c(C(F)(F)F)c3)cc2)ccn1)NO [Compound 12]
[1]
  IC50: < 100 nM

## C#Cc1cccc(Nc2ncnc3cc(OC)c(NC(=O)CCCCCCC(=O)NO)cc23)c1 [Compound 44]
[2]
  IC50: 1000 to 10000 nM
[3]
  IC50: 1000 to 10000 nM
[5]
  IC50: 1000 to 10000 nM
[6]
  IC50: 1000 to 10000 nM
[7]
  IC50: 1000 to 10000 nM
[10]
  IC50: 100 to 1000 nM
[8]
  IC50: 1000 to 10000 nM
[9]
  IC50: 1000 to 10000 nM

## C#Cc1cccc(Nc2ncnc3cc(OCCOC)c(OCCOC)cc23)c1 [Erlotinib, reference compound]
[11]
  IC50: ≥ 5000 nM
[12]
  induction of apoptosis (Caspase 3&7 activity): inactive
[13]
  IC50: 500 to 5000 nM
[14]
  IC50: 500 to 5000 nM
[4]; TABLE D, Prostate adenocarcinoma, read-out: IC50 grading, PC-3
  IC50: ≥ 5000 nM
[15]
  IC50: ≥ 5000 nM
[16]
  IC50: 50 to 500 nM
[17]
  IC50: ≥ 5000 nM
[18]
  IC50: 50 to 500 nM
[19]
  IC50: ≥ 5000 nM
[20]
  effect on tumor growth / tumor size: did not significantly affect tumor size

## CC(/C=C/C(=O)NO)=C\[C@@H](C)C(=O)c1ccc(N(C)C)cc1 [TSA, trichostatin A]
[21]
  fold increase in ER mRNA expression: 5 fold
